Laboratory results reported in patent US7112601B2, “Cycloalkyl heterocycles for treating hepatitis C virus” (priority 2003, dated 2006).

Biological target: T1, HCV NS5B RdRp (Hepatitis C virus genotype 1b, UniProt Q9WMX2)
T1 construct: The protein was expressed with an 18 amino acid C-terminal truncation to enhance the solubility; made in house; host or cells: E. coli BL21(DE3)
Assay: HCV NS5B RdRp enzyme inhibition assay
Type: biochemical
Protocol: HCV NS5B RdRp cloning, expression, and purification. The cDNA encoding the NS5B protein of HCV, genotype 1b, was cloned into the pET21a expression vector. The protein was expressed with an 18 amino acid C-terminal truncation to enhance the solubility. The E. coli competent cell line BL21(DE3) was used for expression of the protein. Cultures were grown at 37° C. for ˜4 hours until the cultures reached an optical density of 2.0 at 600 nm. The cultures were cooled to 20° C. and induced with 1 mM IPTG. Fresh ampicillin was added to a final concentration of 50 ug/ml and the cells were grown overnight at 20° C.
Cell pellets (3L) were lysed for purification to yield 15–24 mgs of purified NS5B. The lysis buffer consisted of 20 mM Tris-HCl, pH 7.4, 500 mM NaCl, 0.5% triton X-100, 1 mM DTT, 1 mM EDTA, 20% glycerol, 0.5 mg/ml lysozyme, 10 mM MgCl2, 15 ug/ml deoxyribonuclease I, and Complete TM protease inhibitor tablets (Roche). After addition of the lysis buffer, frozen cell pellets were resuspended using a tissue homogenizer. To reduce the viscosity of the sample, aliquots of the lysate were sonicated on ice using a microtip attached to a Branson sonicator. The sonicated lysate was centrifuged at 100,000×g for 1 hr at 4° C. and filtered through a 0.2 μm filter unit (Corning).
The protein was purified using three sequential chromatography steps: Heparin sepharose CL-6B, polyU sepharose 4B, and Hitrap SP sepharose (Pharmacia). The chromatography buffers were identical to the lysis buffer but contained no lysozyme, deoxyribonuclease I, MgCl2 or protease inhibitor and the NaCl concentration of the buffer was adjusted according to the requirements for charging the protein onto the column. Each column was eluted with a NaCl gradient which varied in length from 5–50 column volumes depending on the column type. After the final chromatography step, the resulting purity of the enzyme is >90% based on SDS-PAGE analysis. The enzyme was aliquoted and stored at −80° C.
HCV NS5B RdRp enzyme assay. HCV RdRp genotype 1b assays were run in assay buffer composed of 20 mM Tris-HCl, pH 7.5, 2.5 mM KCl, 5 mM MgCl2, 1 mM DTT, 1.6 U RNAse inhibitor (Promega N2515), in 96 well plates (Falcon 3918). All compounds were serially diluted in DMSO and diluted further in assay buffer such that the final concentration of DMSO in the assay was 2%. Compounds were serially diluted (3-fold each time) for a 7 point inhibition analysis. HCV RdRp genotype 1b enzyme was used at a final concentration of 28 nM. A polyA template was used at 28 nM, and the oligo-dT12-18 primer was used at 840 nM final concentration. Preannealed primer and template were obtained commercially (Amersham 27-787802). ^3H-UTP was used at 0.125 μCi (1 μM total UTP). Reaction was initiated by the addition of enzyme. Reactions were incubated at 30° C. for 45 min, and stopped by adding 30 ul of 20% ice cold TCA. Plates were chilled for 30 minutes and harvested onto Unifilter-96, GF/B plates (Packard, 6005177) using a Packard FilterMate Cell Harvester. The harvest plates were prewashed 3 times, 200 ul/well, with 100 mM NaPPi. Harvested filters were washed 30 times, 200 ul/well, with distilled water followed by ethanol. Filter plates were dried, and 30 ul/well microscint-20 was added. Plates were read on a Packard Top Count NXT.
The IC50 values for compounds were determined using […] different [I], combined with 7 nM enzyme, 800 ng of the template-primer polyC/oligoG12 (1:5 molar ratio), and 0.7 uM of ^3H GTP containing 1 uCi. The observed fractional activity (fa=vi/vo) was used in the equation IC50=[I]/(1/fa-1) to determine a single point IC50 value. Typically, the single point IC50 values derived from [I] that produced fractional activities in the range of 0.1 to 0.8 relative to the uninhibited control were averaged to calculate the IC50 value for each compound.

T1 sequence (Q9WMX2 2420-2992): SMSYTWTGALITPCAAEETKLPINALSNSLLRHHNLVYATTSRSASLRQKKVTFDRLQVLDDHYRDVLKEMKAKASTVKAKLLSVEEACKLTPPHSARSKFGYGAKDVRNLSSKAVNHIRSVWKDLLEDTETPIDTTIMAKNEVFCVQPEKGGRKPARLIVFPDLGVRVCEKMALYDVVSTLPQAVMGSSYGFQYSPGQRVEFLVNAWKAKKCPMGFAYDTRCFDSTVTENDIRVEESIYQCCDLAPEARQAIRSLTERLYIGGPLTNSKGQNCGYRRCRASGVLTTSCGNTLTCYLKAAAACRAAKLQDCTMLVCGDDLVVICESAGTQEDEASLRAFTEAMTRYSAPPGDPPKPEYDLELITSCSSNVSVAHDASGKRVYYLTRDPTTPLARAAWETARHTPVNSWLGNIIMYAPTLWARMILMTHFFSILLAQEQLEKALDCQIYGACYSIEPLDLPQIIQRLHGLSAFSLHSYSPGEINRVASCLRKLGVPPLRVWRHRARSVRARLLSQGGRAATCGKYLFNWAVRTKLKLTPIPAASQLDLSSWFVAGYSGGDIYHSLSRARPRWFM

`CCOC(=O)c1cc(C2CCCCC2)n(-c2ccc(OCc3ccccc3)cc2)n1` [Example 29, Ethyl 1-[4-(benzyloxy)phenyl]-5-cyclohexyl-1H-pyrazole-3-carboxylate] and `COC(=O)CCc1cc(C2CCCCC2)n(-c2ccc(OCc3ccccc3)cc2)n1` [Example 40, Methyl 3-{1-[4-(benzyloxy)phenyl]-5-cyclohexyl-1H-pyrazol-3-yl}propanoate] cannot be ordered by IC50: greater than 25 µM for the first, greater than 25 µM for the second.

First: COc1ccc(-c2ccc(Cl)cc2)c(COc2ccc(-c3cc(/C=C(\C)C(=O)O)nn3C3CCCCC3)cc2)c1 [Example 9, (2E)-3-(5-{4-[(4′-chloro-4-methoxy-1,1′-biphenyl-2-yl)methoxy]phenyl}-1-cyclohexyl-1H-pyrazol-3-yl)-2-methyl-2-propenoic acid]
Second: COc1ccc(-c2ccc(Cl)cc2)c(COc2ccc(-c3cc(/C=C/C(=O)O)nn3C3CCCCC3)cc2)c1 [Example 5, (2E)-3-(5-{4-[(4′-chloro-4-methoxy-1,1′-biphenyl-2-yl)methoxy]phenyl}-1-cyclohexyl-1H-pyrazol-3-yl)-2-propenoic acid]
The IC50 of the first is 1.7-fold lower: 0.27 µM for the first, 0.45 µM for the second.

First: COc1ccc(-c2ccc(Cl)cc2)c(COc2ccc(-c3nc(/C=C/C(=O)O)cn3C3CCCCC3)cc2)c1 [Example 48, (2E)-3-(2-{4-[(4′-chloro-4-methoxy-1,1′-biphenyl-2-yl)methoxy]phenyl}-1-cyclohexyl-1H-imidazol-4-yl)-2-propenoic acid]
Second: COc1ccc(-c2ccc(Cl)cc2)c(COc2ccc(-c3nc(/C=C(\C)C(=O)O)cn3C3CCCCC3)cc2)c1 [Example 52, (2E)-3-(2-{4-[(4′-chloro-4-methoxy-1,1′-biphenyl-2-yl)methoxy]phenyl}-1-cyclohexyl-1H-imidazol-4-yl)-2-methyl-2-propenoic acid]
The IC50 of the first is 2.1-fold higher: 5.3 µM for the first, 2.5 µM for the second. The second is the more potent here.

`CCOC(=O)/C(C)=C/c1cc(C2CCCCC2)n(-c2ccc(OCc3cc(OC)ccc3-c3ccc(Cl)cc3)cc2)n1` [Example 36, Ethyl (2E)-3-(1-{4-[(4′-chloro-4-methoxy-1,1′-biphenyl-2-yl)methoxy]phenyl}-5-cyclohexyl-1H-pyrazol-3-yl)-2-methyl-2-propenoate] and `COC(=O)/C=C/c1cc(C2CCCCC2)n(-c2ccc(OCc3cc(OC)ccc3-c3ccc(Cl)cc3)cc2)n1` [Example 32, Methyl (2E)-3-(1-{4-[(4′-chloro-4-methoxy-1,1′-biphenyl-2-yl)methoxy]phenyl}-5-cyclohexyl-1H-pyrazol-3-yl)-2-propenoate] cannot be ordered by IC50: greater than 25 µM for the first, greater than 25 µM for the second.

Compared with `CCOC(=O)/C(C)=C/c1cc(-c2ccc(OCc3cc(C(=O)NC)ccc3-c3ccc(Cl)cc3)cc2)n(C2CCCCC2)n1` [Example 12, Ethyl (2E)-3-(5-{4-[(4′-Chloro-4-N-methylcarbamoyl-1,1′-biphenyl-2-yl)methoxy]phenyl}-1-cyclohexyl-1H-pyrazol-3-yl)-2-methyl-2-propenoate], `CNC(=O)c1ccc(-c2ccc(Cl)cc2)c(COc2ccc(-c3cc(/C=C(\C)C(=O)O)nn3C3CCCCC3)cc2)c1` [Example 13, (2E)-3-(5-{4-[(4′-Chloro-4-N-methylcarbamoyl-1,1′-biphenyl-2-yl)methoxy]phenyl}-1-cyclohexyl-1H-pyrazol-3-yl)-2-methyl-2-propenoic acid] is lower in IC50: greater than 25 µM for the first, 0.38 µM for the second. The second is the more potent here.

Compared with `COc1ccc(-c2ccc(Cl)cc2)c(COc2ccc(-c3c(-c4ccccc4)c(/C=C/C(=O)O)nn3C3CCCCC3)cc2)c1` [Example 28], `COC(=O)/C=C/c1cc(-c2ccc(OCc3cc(OC)ccc3-c3ccc(Cl)cc3)cc2)n(C2CCCCC2)n1` [Example 4, Methyl (2E)-3-(5-{4-[(4′-chloro-4-methoxy-1,1′-biphenyl-2-yl)methoxy]phenyl}-1-cyclohexyl-1H-pyrazol-3-yl)-2-propenoate] is higher in IC50: 1.3 µM for the first, greater than 25 µM for the second. The first is the more potent here.

Compared with `C/C(=C\c1cc(C2CCCCC2)n(-c2ccc(OCc3ccccc3)cc2)n1)C(=O)O` [Example 35, (2E)-3-{1-[4-(benzyloxy)phenyl]-5-cyclohexyl-1H-pyrazol-3-yl}-2-methyl-2-propenoic acid], `O=C(O)/C=C/c1cc(-c2ccc(OCc3ccccc3)cc2)n(C2CCCCC2)n1` [Example 3, (2E)-3-[1-cyclohexyl-5-(4-benzyloxyphenyl)-1H-pyrazol-3-yl]-2-propenoic acid] is lower in IC50: greater than 25 µM for the first, 15 µM for the second. The second is the more potent here.

`O=C(O)CCc1cc(-c2ccc(OCc3ccccc3)cc2)n(C2CCCCC2)n1` [Example 15, 3-{5-[4-(benzyloxy)phenyl]-1-cyclohexyl-1H-pyrazol-3-yl}propanoic acid] and `COC(=O)/C=C/c1cc(-c2ccc(OCc3ccccc3)cc2)n(C2CCCCC2)n1` [Example 2, Methyl (2E)-3-{5-[4-(benzyloxy)phenyl]-1-cyclohexyl-1H-pyrazol-3-yl}-2-propenoate] cannot be ordered by IC50: greater than 25 µM for the first, greater than 25 µM for the second.

First: COC(=O)/C=C/c1nn(C2CCCCC2)c(-c2ccc(OCc3ccccc3)cc2)c1Br [Example 23, Methyl (2E)-3-{5-[4-(benzyloxy)phenyl]-4-bromo-1-cyclohexyl-1H-pyrazol-3-yl}-2-propenoate]
Second: O=C(O)/C=C/c1nn(C2CCCCC2)c(-c2ccc(OCc3ccccc3)cc2)c1Br [Example 24, (2E)-3-{5-[4-(benzyloxy)phenyl]-4-bromo-1-cyclohexyl-1H-pyrazol-3-yl}-2-propenoic acid]
The IC50 of the first is higher: greater than 25 µM for the first, 3.1 µM for the second.

First: COc1ccc(-c2ccc(Cl)cc2)c(COc2ccc(-n3nc(CCC(=O)O)cc3C3CCCCC3)cc2)c1 [Example 43, 3-(1-{4-[(4′-chloro-4-methoxy-1,1′-biphenyl-2-yl)methoxy]phenyl}-5-cyclohexyl-1H-pyrazol-3-yl)propanoic acid]
Second: COc1ccc(-c2ccc(Cl)cc2)c(COc2ccc(-c3cc(C#CC(=O)O)nn3C3CCCCC3)cc2)c1 [Example 21, 3-(5-{4-[(4′-chloro-4-methoxy-1,1′-biphenyl-2-yl)methoxy]phenyl}-1-cyclohexyl-1H-pyrazol-3-yl)-2-propynoic acid]
The IC50 of the first is 7.4-fold lower: 0.31 µM for the first, 2.3 µM for the second.

`COC(=O)/C=C/c1cn(C2CCCCC2)c(-c2ccc(OCc3ccccc3)cc2)n1` [Example 46, Methyl (2E)-3-{2-[4-(benzyloxy)phenyl]-1-cyclohexyl-1H-imidazol-4-yl}-2-propenoate] and `COC(=O)/C=C/c1nn(C2CCCCC2)c(-c2ccc(OCc3ccccc3)cc2)c1-c1ccccc1` [Example 25, Methyl (2E)-3-{5-[4-(benzyloxy)phenyl]-1-cyclohexyl-4-phenyl-1H-pyrazol-3-yl}-2-propenate] cannot be ordered by IC50: greater than 25 µM for the first, greater than 25 µM for the second.

First: CNC(=O)c1ccc(-c2ccc(Cl)cc2)c(COc2ccc(-c3nc(/C=C(\C)C(=O)O)cn3C3CCCCC3)cc2)c1 [Example 54, (2E)-3-(2-{4-[(4′-chloro-4-N-methylcarbamoyl-1,1′-biphenyl-2-yl)methoxy]phenyl}-1-cyclohexyl-1H-imidazol-4-yl)-2-methyl-2-propenoic acid]
Second: CCOC(=O)/C(C)=C/c1cc(-c2ccc(OCc3cc(C(=O)OC(C)(C)C)ccc3Br)cc2)n(C2CCCCC2)n1 [Example 10, Ethyl (2E)-3-(5-{4-[(t-butyl-2-bromo-5-phenylcarboxylate)methoxy]phenyl}-1-cyclohexyl-1H-pyrazol-3-yl)-2-methyl-2-propenoate]
The IC50 of the first is lower: 1.6 µM for the first, greater than 25 µM for the second. The first is the more potent here.

`CCOC(=O)c1nn(C2CCCCC2)c(-c2ccc(OCc3ccccc3)cc2)c1Br` [Example 22, Ethyl 5-[4-(benzyloxy)phenyl]-4-bromo-1-cyclohexyl-1H-pyrazole-3-carboxylate] and `CCOC(=O)C#Cc1cc(-c2ccc(OCc3ccccc3)cc2)n(C2CCCCC2)n1` [Example 18, Ethyl 3-{5-[4-(benzyloxy)phenyl]-1-cyclohexyl-1H-pyrazol-3-yl}-2-propynoate] cannot be ordered by IC50: greater than 25 µM for the first, greater than 25 µM for the second.
